Like-named read-outs stand apart in the source and are kept apart here. Starred links: 1 amine or outer side, 2 acyl side, 3 side chain; linkers in the order of their positions; H or OH if unused. Non-standard residues stand in square brackets, D forms with d. Groups on a side chain read outwards from the residue. No end group written: not given here. *: point of attachment. C20 diacid = O=C(O)CCCCCCCCCCCCCCCCCCC(=O)*; C18 diacid = O=C(O)CCCCCCCCCCCCCCCCC(=O)*; γGlu = O=C(O)[C@H](CCC(=O)[*:2])N[*:1]; αMe4Pal = C[C@](N)(Cc1ccncc1)C(=O)O; 4Pal = N[C@@H](Cc1ccncc1)C(=O)O; αMeL = CC(C)C[C@](C)(N)C(=O)O; Orn = NCCC[C@H](N)C(=O)O; Dap = NC[C@H](N)C(=O)O; AEEA = NCCOCCOCC(=O)O; Aib = CC(C)(N)C(=O)O
How the values were obtained:
Assay type in all cases: cell-based
hGIPR [1] = target: T1, hGIPR (Homo sapiens, UniProt P48546); assay: Functional cAMP activity in the presence of 1% HSA
T1 sequence (P48546 22-466): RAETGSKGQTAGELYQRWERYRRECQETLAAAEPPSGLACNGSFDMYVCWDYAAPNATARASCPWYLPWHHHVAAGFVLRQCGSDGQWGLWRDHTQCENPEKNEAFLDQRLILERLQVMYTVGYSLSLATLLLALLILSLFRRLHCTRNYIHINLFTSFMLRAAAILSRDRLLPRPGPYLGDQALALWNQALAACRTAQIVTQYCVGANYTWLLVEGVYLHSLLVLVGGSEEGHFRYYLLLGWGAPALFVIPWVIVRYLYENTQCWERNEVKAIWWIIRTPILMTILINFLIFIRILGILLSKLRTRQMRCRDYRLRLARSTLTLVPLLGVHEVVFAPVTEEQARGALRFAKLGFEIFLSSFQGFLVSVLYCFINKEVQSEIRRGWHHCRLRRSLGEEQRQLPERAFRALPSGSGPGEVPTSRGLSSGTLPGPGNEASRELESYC

hGLP-1R [2] = target: T2, hGLP-1R (Homo sapiens, UniProt P43220); assay: Functional cAMP activity in the presence of 1% HSA
T2 sequence (P43220 24-463): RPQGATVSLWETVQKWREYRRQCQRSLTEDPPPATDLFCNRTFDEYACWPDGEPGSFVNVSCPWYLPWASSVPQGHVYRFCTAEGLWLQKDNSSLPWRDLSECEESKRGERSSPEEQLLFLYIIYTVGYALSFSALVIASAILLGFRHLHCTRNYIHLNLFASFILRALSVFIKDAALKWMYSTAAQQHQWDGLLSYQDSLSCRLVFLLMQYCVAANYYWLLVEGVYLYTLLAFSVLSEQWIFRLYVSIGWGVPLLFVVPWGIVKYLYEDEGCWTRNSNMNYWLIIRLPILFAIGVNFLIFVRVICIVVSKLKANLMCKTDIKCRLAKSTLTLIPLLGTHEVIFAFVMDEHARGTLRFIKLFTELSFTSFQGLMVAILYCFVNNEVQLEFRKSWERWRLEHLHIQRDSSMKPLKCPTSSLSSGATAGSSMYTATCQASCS

human GcgR = human GcgR (Homo sapiens, UniProt P47871); assay: Functional cAMP activity in the presence of 1% HSA
Chain of human GcgR (P47871 26-477): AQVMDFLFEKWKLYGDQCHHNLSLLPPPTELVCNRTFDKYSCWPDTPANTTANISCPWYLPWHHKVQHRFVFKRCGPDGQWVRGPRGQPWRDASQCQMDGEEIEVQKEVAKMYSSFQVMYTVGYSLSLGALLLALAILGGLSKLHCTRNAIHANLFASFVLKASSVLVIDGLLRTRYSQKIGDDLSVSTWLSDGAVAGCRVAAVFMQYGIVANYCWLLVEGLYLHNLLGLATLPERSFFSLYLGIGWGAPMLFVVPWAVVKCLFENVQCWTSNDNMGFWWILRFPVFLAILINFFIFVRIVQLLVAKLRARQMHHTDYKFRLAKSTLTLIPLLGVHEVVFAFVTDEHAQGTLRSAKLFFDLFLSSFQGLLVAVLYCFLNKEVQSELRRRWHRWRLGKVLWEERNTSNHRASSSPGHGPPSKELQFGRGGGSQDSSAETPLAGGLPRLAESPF

hGIPR [3] = target: T1, hGIPR; assay: Functional cAMP activation in the presence of 0.1% casein (no HSA);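 as to Relative cAMP EC50, hGIPR: intracellular cAMP rise after 30 min at 37 °C read by HTRF against a standard curve, scaled between buffer alone (0%) and top control ligand concentration (100%), four-parameter fit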;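 as to Relative cAMP EC50, hGLP-1R: intracellular cAMP rise after 30 min at 37 °C read by HTRF, normalized between buffer only (0%) and maximal control ligand (100%), four-parameter variable-slope fit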;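 as to Relative cAMP EC50, hGcgR: intracellular cAMP rise after 30 min at 37 °C, read by HTRF against a cAMP standard curve, scaled from buffer only (0%) to maximal control ligand response (100%)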
hGLP-1R [4] = target: T2, hGLP-1R; assay: as above
hGcgR = hGcgR (Homo sapiens, UniProt P47871); assay: as above;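 also: intracellular cAMP rise after 30 min at 37 °C, read by HTRF against a cAMP standard curve, scaled from buffer only (0%) to maximal control ligand response (100%)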
Chain of hGcgR (P47871 26-477): as above
Protocol: After a 30-minute incubation at 37° C., the resulting increase in intracellular cAMP is quantitatively determined using the CisBio CAMP Dynamic 2 HTRF Assay Kit (62AM4PEJ). Briefly, cAMP levels within the cell are detected by adding the cAMP-d2 conjugate in cell lysis buffer followed by the antibody anti-cAMP-Eu^3+-Cryptate, also in cell lysis buffer.
Intracellular cAMP levels are determined by extrapolation using a standard curve. Dose response curves of compounds are plotted as the percentage of stimulation normalized to minimum (buffer only) and maximum (maximum concentration of each control ligand) values and analyzed using a four parameter non-linear regression fit with a variable slope (Genedata Screener 13). EC50 is the concentration of compound causing half-maximal simulation in a dose response curve. Each relative EC50 value for the Geometric mean calculation is determined from a curve fitting.

human GLP1-R = human GLP1-R (Homo sapiens, UniProt P43220); assay: GLP1-R internalization assay in HEK293 cells; conditions: for Internalization % TOP: normalized to maximum concentration of GLP-1 (100%)
Chain of human GLP1-R (P43220 24-463): as the sequence (P43220 24-463) above

[5] = read-out: cAMP Rel EC50, hGLP-1R
[6] = in the presence of 0.1% casein (no HSA), geometric mean, read-out: Relative cAMP EC50, hGIPR
[7] = in the presence of 0.1% casein (no HSA), geometric mean, read-out: Relative cAMP EC50, hGLP-1R
[8] = in the presence of 0.1% casein (no HSA), geometric mean, read-out: Relative cAMP EC50, hGcgR
[9] = HEK293 cells expressing SNAP-GLP-1R, read-out: GLP1R Internalization EC50

Substance | EC50 (hGIPR [1]; read-out: cAMP Rel EC50, hGIPR) | EC50 (hGLP-1R [2]; [5]) | EC50 (human GcgR; read-out: cAMP Rel EC50, hGcgR) | EC50 (hGIPR [3]; [6]) | EC50 (hGLP-1R [4]; [7]) | EC50 (hGcgR; [8]) | EC50 (human GLP1-R; [9]) | Internalization % TOP (human GLP1-R) | EC50 (hGIPR [1]) | EC50 (hGLP-1R [2]) | EC50 (human GcgR) | EC50 (hGIPR [3]) | EC50 (hGLP-1R [4]) | EC50 (hGcgR) | EC50 (human GLP1-R)
H-Y[Aib]QGTFTSDFS[Orn][αMeL]LDKK([AEEA-γGlu-C18 diacid])AQ[Aib]AFIEWLLEGGTSSGAPPPSGS-NH2 [Example 176] | 40.7 nM | 389 nM | 461 nM | 0.212 nM | 2.92 nM | 4.1 nM | 103 nM | 48% | – | – | – | – | – | – | –
Y[Aib]QGTFTSDFSK[αMeL]LDKK([AEEA-γGlu-C18 diacid])AQ[Aib]AFIEYLLEGGPSSGAPPPSEG-NH2 [Example 48] | 46.9 nM | 570 nM | 728 nM | 0.27 nM | 2.99 nM | 3.8 nM | 44 nM | 55.2% | – | – | – | – | – | – | –
H-Y[Aib]QGTFTSDFS[Orn][αMeL]LDKK([AEEA-AEEA-γGlu-C18 diacid])AQ[Aib]AFIEYLLE[dA]GPSSGEPPPSGE-NH2 [Example 117] | 29.9 nM | 524 nM | 867 nM | 0.267 nM | 6.4 nM | 4.75 nM | 45.5 nM | 51% | – | – | – | – | – | – | –
H-Y[Aib]QGTFTSDFS[Orn][αMeL]LDKK([AEEA-γGlu-C18 diacid])AQ[Aib]AFIEYLLEGGHSSGEPPPGGS-NH2 [Example 164] | 59 nM | 962 nM | 411 nM | 0.302 nM | 5.02 nM | 2.92 nM | 45.9 nM | 46.5% | – | – | – | – | – | – | –
H-Y[Aib]QGTFTSDFS[Orn][αMeL]LDKK([AEEA-γGlu-γGlu-C18 diacid])AQ[Aib]AFIEYLLE[Aib]GPSSGAPPPSGT-NH2 [Example 278] | 7.69 nM | 241 nM | 274 nM | 0.0963 nM | 4.11 nM | 4.45 nM | 251 nM | 68.6% | – | – | – | – | – | – | –
H-Y[Aib]QGTFTSDFSK[αMeL]LDKK([AEEA-γGlu-C20 diacid])AQ[Aib]AFIEYLLAGGPSSGEPPPSSG-NH2 [Example 7] | 50.6 nM | 494 nM | 1210 nM | 0.203 nM | 2.11 nM | 5.05 nM | 52.6 nM | 76.3% | – | – | – | – | – | – | –
H-Y[Aib]QGTFTSD[4Pal]SR[αMeL]LDKK([AEEA-γGlu-C18 diacid])AQ[Aib]AFIEYLLAGGPSSGAPPPSGE-NH2 [Example 113] | 32.3 nM | 467 nM | 2090 nM | 0.24 nM | 3.93 nM | 12 nM | 39.5 nM | 64.6% | – | – | – | – | – | – | –
H-Y[Aib]QGTFTSDFS[Orn][αMeL]LDKK([AEEA-γGlu-C18 diacid])AQ[Aib]AFIEYLIE[Aib]GESSGAPPPSGE-NH2 [Example 219] | 23.3 nM | 221 nM | 1870 nM | 0.119 nM | 0.835 nM | 7.77 nM | 48 nM | 37.2% | – | – | – | – | – | – | –
H-Y[Aib]QGTFTSDFSK[αMeL]LDKK([AEEA-γGlu-C20 diacid])AQ[Aib]AFIEYLLE[Aib]GPSSGAPPPGGS-NH2 [Example 43] | 29.6 nM | 539 nM | 850 nM | 0.101 nM | 1.55 nM | 2.71 nM | 58.2 nM | 68.3% | – | – | – | – | – | – | –
H-Y[Aib]QGTFTSDYS[Dap][αMeL]LDKK([AEEA-γGlu-C18 diacid])AQ[Aib]AFIEYLLEGGESSGAPPPSGS-NH2 [Example 360] | 78.3 nM | 989 nM | 1470 nM | 0.45 nM | 5.86 nM | 5.28 nM | 214 nM | 66.1% | – | – | – | – | – | – | –
H-Y[Aib]QGTFTSDFS[Orn][αMeL]LDKK([AEEA-γGlu-C18 diacid])AQ[Aib]AFIEYLLAGGPSSGEPPPSGE-NH2 [Example 97] | 23.9 nM | 605 nM | 1270 nM | 0.176 nM | 3.23 nM | 6.73 nM | 51.9 nM | 50.7% | – | – | – | – | – | – | –
H-Y[Aib]QGTFTSDFS[Orn][αMeL]LDKK([AEEA-γGlu-C18 diacid])AQ[Aib]AFIEYLLAGGPSSGAPPPSGT-NH2 [Example 87] | 12.8 nM | 290 nM | 1110 nM | 0.128 nM | 2.75 nM | 8.51 nM | 61.8 nM | 45.4% | – | – | – | – | – | – | –
H-Y[Aib]QGTFTSDFS[Orn][αMeL]LDKK([AEEA-γGlu-C18 diacid])AQ[Aib]AFIEYLLAGGPSSGAPPPSGS-NH2 [Example 95] | 18.2 nM | 380 nM | 1130 nM | 0.116 nM | 1.95 nM | 8.41 nM | 37.8 nM | 49.3% | – | – | – | – | – | – | –
Y[Aib]QGTFTSDFS[Orn][αMeL]LDKK([AEEA-γGlu-C18 diacid])AQ[Aib]AFIEYLLEGGPSSGAPPPSEG-NH2 [Example 50] | 69.6 nM | 1110 nM | 1040 nM | 0.29 nM | 4.65 nM | 4.25 nM | 30.1 nM | 31.1% | – | – | – | – | – | – | –
H-Y[Aib]QGTFTSDFSK[αMeL]LDKK([AEEA-γGlu-C20 diacid])AQ[Aib]AFIEYLLAGGPSSGEPPPSGS-NH2 [Example 8] | 39.4 nM | 603 nM | 1560 nM | 0.231 nM | 2.11 nM | 6.65 nM | 63.2 nM | 74% | – | – | – | – | – | – | –
H-Y[Aib]QGTFTSDFS[Orn][αMeL]LDKK([AEEA-AEEA-γGlu-C18 diacid])AQ[Aib]AFIEYLLE[Aib]GHSSGAPPPSGS-NH2 [Example 181] | 12.7 nM | 365 nM | 772 nM | 0.133 nM | 4.39 nM | 6.25 nM | 116 nM | 47.5% | – | – | – | – | – | – | –
H-Y[Aib]QGTFTSDFSR[αMeL]LDKK([AEEA-AEEA-γGlu-C18 diacid])AQ[Aib]AFIEYLLE[Aib]GPSSGAPPPSGS-NH2 [Example 80] | – | – | – | – | – | – | – | 48.2% | 10.1 nM | 627 nM | 1190 nM | 0.0593 nM | 2.55 nM | 7.44 nM | 35.8 nM
H-Y[Aib]QGTFTSDFS[Orn][αMeL]LDKK([AEEA-γGlu-C18 diacid])AQ[Aib]AFIEYLLE[Aib]G[4Pal]SSGAPPPSGE-NH2 [Example 248] | 10.6 nM | 438 nM | 241 nM | 0.0861 nM | 3.17 nM | 3.36 nM | 67.4 nM | 39.5% | – | – | – | – | – | – | –
H-Y[Aib]QGTFTSDFS[Orn][αMeL]LDKK([AEEA-γGlu-C18 diacid])AQ[αMe4Pal]AFIEYLIE[Aib]GESSGAPPPSGS-NH2 [Example 229] | 27.8 nM | 249 nM | 332 nM | 0.179 nM | 1.58 nM | 2.3 nM | 42.4 nM | 31.4% | – | – | – | – | – | – | –
Y[Aib]QGTFTSDFS[Orn][αMeL]LDKK([AEEA-AEEA-γGlu-C18 diacid])AQ[Aib]AFIEYLLE[dA]GPSSGEPPPSEG-NH2 [Example 116] | 40.4 nM | 401 nM | 882 nM | 0.382 nM | 7.83 nM | 3.96 nM | 80.7 nM | 46.2% | – | – | – | – | – | – | –
H-Y[Aib]QGTFTSDFSK[αMeL]LDKK([AEEA-γGlu-C20 diacid])AQ[Aib]AFIEYLLAGGPSSGAPPPSGG-NH2 [Example 12] | 30.2 nM | 216 nM | 1490 nM | 0.17 nM | 1.46 nM | 12.2 nM | 48.5 nM | 75.3% | – | – | – | – | – | – | –
H-Y[Aib]QGTFTSDFSK[αMeL]LDKK([AEEA-γGlu-C20 diacid])AQ[Aib]AFIEWLLEGGPSSGAPPPSEG-NH2 [Example 37] | 56.4 nM | 514 nM | 1870 nM | 0.207 nM | 1.66 nM | 6.83 nM | 51.6 nM | 68.3% | – | – | – | – | – | – | –
H-Y[Aib]QGTFTSDFS[Dap][αMeL]LDKK([AEEA-γGlu-C18 diacid])AQ[Aib]AFIEYLLEGGPSSGAPPPGGS-NH2 [Example 68] | 85.1 nM | 612 nM | 1160 nM | 0.46 nM | 3.07 nM | 8.55 nM | 95.2 nM | 33.8% | – | – | – | – | – | – | –

— patent publication US20240270821A1, “GIP/GLP1/GCG TRI-RECEPTOR AGONISTS AND USES THEREOF” (priority 2023, published 2024)
